Earlier results in publication PMC9762682, “Tocotrienols: Exciting Biological and Pharmacological Properties of Tocotrienols and Naturally Occurring Compounds, Part II” (Annals of clinical case reports, 2022).

Assays:
Breast cancer cells = tested on: Breast cancer cells; parameters: method as in PMID 29606130; value at effective dose: unit not given here;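 as to IC50: anti-proliferation of cancer cells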
Liver cancer cells = tested on: Liver cancer cells; parameters: method as in PMID 29606130; value at effective dose: unit not given here; settings: for effective dose / percentage of control at effective dose / value at effective dose: 48 h
Melanoma cells = tested on: Melanoma cells; parameters: method as in PMID 29606130
Pancreas cancer cells = tested on: Pancreas cancer cells; parameters: method as in PMID 29606130; value at effective dose: unit not given here; settings: for effective dose / percentage of control at effective dose / value at effective dose: 48 h
T-cells (Jurkat) = tested on: T-cells (Jurkat); parameters: method as in PMID 29606130; value at effective dose: unit not given here
Hela cells = tested on: Hela cells; parameters: method as in PMID 29606130; value at effective dose: unit not given here; settings: for effective dose / percentage of control at effective dose / value at effective dose: 48 h;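 as to IC50: anti-proliferation of cancer cells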
B-Lymphocyte cells = tested on: B-Lymphocyte cells; parameters: method as in PMID 29606130; value at effective dose: unit not given here;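 as to IC50: anti-proliferation of cancer cells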
Prostate cancer cells = tested on: Prostate cancer cells; parameters: method as in PMID 29606130; value at effective dose: scale not given here; settings: for effective dose / percentage of control at effective dose / value at effective dose: 48 h;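 as to IC50: anti-proliferation of cancer cells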
Lung cancer cells = tested on: Lung cancer cells; parameters: method as in PMID 29606130; value at effective dose: unit not given here
people with T2DM = settings: for Fasting Glucose, Post-dose, percentage of control (pre-dose) in parentheses / MDA, Post-dose / MDA, Post-dose, percentage of control (pre-dose) in parentheses / hs-CRP, Post-dose / hs-CRP, Post-dose, percentage of control (pre-dose) in parentheses / Fasting Glucose, Post-dose: serum; for Fasting Glucose, Post-dose, percentage of control (pre-dose) in parentheses / MDA, Post-dose / MDA, Post-dose, percentage of control (pre-dose) in parentheses / hs-CRP, Post-dose / hs-CRP, Post-dose, percentage of control (pre-dose) in parentheses / Fasting HbA1c, Post-dose / Fasting HbA1c, Post-dose, percentage of control (pre-dose) in parentheses / HOMA-IR, Post-dose / HOMA-IR, Post-dose, percentage of control (pre-dose) in parentheses: two capsules/d for 24-weeks; for Fasting Glucose, Post-dose: two capsules/d for 24-weeks (δ-tocotrienol 250 mg, vitamin D3 5000 IU, resveratrol 250 mg per capsule)

C[C@@H]1C[C@H]2[C@@H]3CCC4=CC(=O)C=C[C@]4(C)[C@@]3(F)[C@@H](O)C[C@]2(C)[C@@]1(O)C(=O)CO [Dexamethasone]
effective dose (Breast cancer cells): 80 µM
percentage of control at effective dose (Breast cancer cells): 85%
value at effective dose (Breast cancer cells): 15.7 ± 3.1
effective dose (Liver cancer cells): 80 µM
percentage of control at effective dose (Liver cancer cells): 93%
value at effective dose (Liver cancer cells): 67.3 ± 4.0
effective dose (Melanoma cells): 40 µM
percentage of control at effective dose (Melanoma cells): 74%
effective dose (Pancreas cancer cells): 20 µM
percentage of control at effective dose (Pancreas cancer cells): 73%
value at effective dose (Pancreas cancer cells): 34.7 ± 4.0
effective dose (T-cells (Jurkat)): 40 µM
percentage of control at effective dose (T-cells (Jurkat)): 71%
value at effective dose (T-cells (Jurkat)): 282.0 ± 21.7
IC50 (Hela cells): 20 µM
percentage of control at IC50 dose (Hela cells): 54%
effective dose (Hela cells): 80 µM
percentage of control at effective dose (Hela cells): 53%
value at effective dose (Hela cells): 18.0 ± 4.0
IC50 (B-Lymphocyte cells): 5 µM
effective dose (B-Lymphocyte cells): 10 µM
percentage of control at IC50 dose (B-Lymphocyte cells): 45%
percentage of control at effective dose (B-Lymphocyte cells): 41%
value at effective dose (B-Lymphocyte cells): 61.0 ± 3.6
IC50 (Prostate cancer cells): 2500 nM
percentage of control at IC50 dose (Prostate cancer cells): 45%
effective dose (Prostate cancer cells): 20 µM
percentage of control at effective dose (Prostate cancer cells): 32%
value at effective dose (Prostate cancer cells): 16.7 ± 1.5
IC50 (Lung cancer cells): 2.5 µM
effective dose (Lung cancer cells): 20 µM
percentage of control at IC50 dose (Lung cancer cells): 47%
percentage of control at effective dose (Lung cancer cells): 76%
value at effective dose (Lung cancer cells): 16.7 ± 2.1

C=C[C@H]1C[N@@]2CC[C@H]1C[C@H]2[C@H](O)c1ccnc2ccc(OC)cc12 [Quinine Sulphate]
effective dose (Breast cancer cells): 80 µM
percentage of control at effective dose (Breast cancer cells): 60%
value at effective dose (Breast cancer cells): 12.3 ± 2.3
IC50 (Liver cancer cells): 80 µM
percentage of control at IC50 dose (Liver cancer cells): 58%
effective dose (Liver cancer cells): 80 µM
percentage of control at effective dose (Liver cancer cells): 58%
value at effective dose (Liver cancer cells): 47.7 ± 2.1
IC50 (Melanoma cells): 80 µM
effective dose (Melanoma cells): 20 µM
percentage of control at IC50 dose (Melanoma cells): 50%
percentage of control at effective dose (Melanoma cells): 56%
effective dose (Pancreas cancer cells): 40 µM
percentage of control at effective dose (Pancreas cancer cells): 78%
value at effective dose (Pancreas cancer cells): 35.0 ± 3.0
IC50 (T-cells (Jurkat)): 80 µM
effective dose (T-cells (Jurkat)): 40 µM
percentage of control at IC50 dose (T-cells (Jurkat)): 50%
percentage of control at effective dose (T-cells (Jurkat)): 77%
value at effective dose (T-cells (Jurkat)): 267.7 ± 29.7
IC50 (Hela cells): 10 µM
percentage of control at IC50 dose (Hela cells): 24%
effective dose (Hela cells): 20 µM
percentage of control at effective dose (Hela cells): 19%
effective dose (B-Lymphocyte cells): 80 µM
percentage of control at effective dose (B-Lymphocyte cells): 19%
IC50 (Prostate cancer cells): 20000 nM
percentage of control at IC50 dose (Prostate cancer cells): 36%
effective dose (Prostate cancer cells): 20 µM
percentage of control at effective dose (Prostate cancer cells): 36%
value at effective dose (Prostate cancer cells): 15.7 ± 2.1
effective dose (Lung cancer cells): 40 µM
percentage of control at effective dose (Lung cancer cells): 66%

C=C(NC(=O)C(=C)NC(=O)c1csc(C2=N[C@@H]3c4csc(n4)[C@H]4NC(=O)c5csc(n5)[C@H]([C@](C)(O)[C@@H](C)O)NC(=O)[C@H]5CSC(=N5)/C(=C/C)NC(=O)[C@H]([C@@H](C)O)NC(=O)c5csc(n5)[C@]3(CC2)NC(=O)[C@H](C)NC(=O)C(=C)NC(=O)[C@H](C)NC(=O)[C@H]([C@@H](C)CC)N[C@@H]2C=Cc3c([C@H](C)O)cc(nc3[C@H]2O)C(=O)O[C@@H]4C)n1)C(N)=O [Thiostrepton]
IC50 (Breast cancer cells): 20 µM
effective dose (Breast cancer cells): 10 µM
percentage of control at IC50 dose (Breast cancer cells): 16%
percentage of control at effective dose (Breast cancer cells): 29%
value at effective dose (Breast cancer cells): 6.7 ± 0.6
IC50 (Liver cancer cells): 2.5 µM
percentage of control at IC50 dose (Liver cancer cells): 53%
effective dose (Liver cancer cells): 10 µM
percentage of control at effective dose (Liver cancer cells): 8%
value at effective dose (Liver cancer cells): 6.7 ± 2.2
effective dose (Melanoma cells): 5 µM
percentage of control at IC50 dose (Melanoma cells): 34%
percentage of control at effective dose (Melanoma cells): 13%
IC50 (Pancreas cancer cells): 5 µM
percentage of control at IC50 dose (Pancreas cancer cells): 29%
effective dose (Pancreas cancer cells): 10 µM
percentage of control at effective dose (Pancreas cancer cells): 16%
value at effective dose (Pancreas cancer cells): 7.7 ± 0.6
effective dose (T-cells (Jurkat)): 2.5 µM
percentage of control at IC50 dose (T-cells (Jurkat)): 5%
percentage of control at effective dose (T-cells (Jurkat)): 5%
value at effective dose (T-cells (Jurkat)): 21.3 ± 2.1
IC50 (Hela cells): 10 µM
percentage of control at IC50 dose (Hela cells): 24%
effective dose (Hela cells): 40 µM
percentage of control at effective dose (Hela cells): 16%
value at effective dose (Hela cells): 8.7 ± 1.5
effective dose (B-Lymphocyte cells): 2.5 µM
percentage of control at IC50 dose (B-Lymphocyte cells): 23%
percentage of control at effective dose (B-Lymphocyte cells): 23%
value at effective dose (B-Lymphocyte cells): 15.7 ± 4.0
IC50 (Prostate cancer cells): 2500 nM
percentage of control at IC50 dose (Prostate cancer cells): 53%
effective dose (Prostate cancer cells): 5 µM
percentage of control at effective dose (Prostate cancer cells): 19%
value at effective dose (Prostate cancer cells): 7.0 ± 1.7
IC50 (Lung cancer cells): 5 µM
effective dose (Lung cancer cells): 5 µM
percentage of control at IC50 dose (Lung cancer cells): 48%
percentage of control at effective dose (Lung cancer cells): 28%
value at effective dose (Lung cancer cells): 7.0 ± 2.0

C=C1CC[C@H](O)C/C1=C/C=C1\CCC[C@]2(C)[C@@H]([C@H](C)CCCC(C)C)CC[C@@H]12 [Vitamin D3]
Fasting Glucose, Post-dose, percentage of control (pre-dose) in parentheses (people with T2DM): 95%
MDA, Post-dose (people with T2DM): 3.48 µmol/L
MDA, Post-dose, percentage of control (pre-dose) in parentheses (people with T2DM): 97%
hs-CRP, Post-dose (people with T2DM): 3.09 mg/L
hs-CRP, Post-dose, percentage of control (pre-dose) in parentheses (people with T2DM): 92%
Fasting Glucose, Post-dose (people with T2DM): 7.16 mmol/L
Fasting HbA1c, Post-dose (people with T2DM): 8.19%
Fasting HbA1c, Post-dose, percentage of control (pre-dose) in parentheses (people with T2DM): 93%
HOMA-IR, Post-dose (people with T2DM): 4.74
HOMA-IR, Post-dose, percentage of control (pre-dose) in parentheses (people with T2DM): 89%

Oc1ccc(/C=C/c2cc(O)cc(O)c2)cc1 [trans-Resveratrol]
Fasting Glucose, Post-dose, percentage of control (pre-dose) in parentheses (people with T2DM): 94%
MDA, Post-dose (people with T2DM): 3.49 µmol/L
MDA, Post-dose, percentage of control (pre-dose) in parentheses (people with T2DM): 91%
hs-CRP, Post-dose (people with T2DM): 3.28 mg/L
hs-CRP, Post-dose, percentage of control (pre-dose) in parentheses (people with T2DM): 89%
Fasting Glucose, Post-dose (people with T2DM): 6.98 mmol/L
Fasting HbA1c, Post-dose (people with T2DM): 7.86%
Fasting HbA1c, Post-dose, percentage of control (pre-dose) in parentheses (people with T2DM): 92%
HOMA-IR, Post-dose (people with T2DM): 4.98
HOMA-IR, Post-dose, percentage of control (pre-dose) in parentheses (people with T2DM): 93%
